Source: ChEMBL document CHEMBL2331101, “Aldosterone synthase inhibitors” (ACS Med Chem Lett, 2013)

Assays:
Assay type in all cases: cell-based
CYP11B1 = biological target: T1, CYP11B1 (Homo sapiens, UniProt P15538); experiment: (§1) Inhibition of human Cyp11B1 transfected in chinese hamster V79MZ cells using deoxycorticosterone as substrate incubated for 60 mins prior to substrate addition measured after 25 mins by HPLC analysis; settings: human, Chinese hamster V79MZ cells transfected with human CYP11B1, probe deoxycorticosterone
T1 sequence (P15538 whole entry): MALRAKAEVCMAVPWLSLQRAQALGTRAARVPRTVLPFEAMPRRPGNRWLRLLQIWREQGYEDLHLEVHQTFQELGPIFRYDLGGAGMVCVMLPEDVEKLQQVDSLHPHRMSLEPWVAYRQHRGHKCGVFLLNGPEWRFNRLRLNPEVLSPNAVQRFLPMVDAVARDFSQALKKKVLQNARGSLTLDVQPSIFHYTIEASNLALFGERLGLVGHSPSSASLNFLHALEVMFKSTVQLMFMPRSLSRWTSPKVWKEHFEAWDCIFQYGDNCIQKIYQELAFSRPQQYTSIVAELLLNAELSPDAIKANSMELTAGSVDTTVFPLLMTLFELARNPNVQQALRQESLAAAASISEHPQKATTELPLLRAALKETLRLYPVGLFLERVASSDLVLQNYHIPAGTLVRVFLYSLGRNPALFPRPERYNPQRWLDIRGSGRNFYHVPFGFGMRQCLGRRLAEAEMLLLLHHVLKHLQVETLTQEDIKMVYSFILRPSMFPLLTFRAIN

[1] = biological target: T2, Cytochrome P450 11B2, mitochondrial (Homo sapiens, UniProt P19099); experiment: Inhibition of human Cyp11B2 transfected in chinese hamster V79MZ cells using deoxycorticosterone as substrate incubated for 60 mins prior to substrate addition measured after 50 mins by HPLC analysis
T2 sequence (P19099 whole entry): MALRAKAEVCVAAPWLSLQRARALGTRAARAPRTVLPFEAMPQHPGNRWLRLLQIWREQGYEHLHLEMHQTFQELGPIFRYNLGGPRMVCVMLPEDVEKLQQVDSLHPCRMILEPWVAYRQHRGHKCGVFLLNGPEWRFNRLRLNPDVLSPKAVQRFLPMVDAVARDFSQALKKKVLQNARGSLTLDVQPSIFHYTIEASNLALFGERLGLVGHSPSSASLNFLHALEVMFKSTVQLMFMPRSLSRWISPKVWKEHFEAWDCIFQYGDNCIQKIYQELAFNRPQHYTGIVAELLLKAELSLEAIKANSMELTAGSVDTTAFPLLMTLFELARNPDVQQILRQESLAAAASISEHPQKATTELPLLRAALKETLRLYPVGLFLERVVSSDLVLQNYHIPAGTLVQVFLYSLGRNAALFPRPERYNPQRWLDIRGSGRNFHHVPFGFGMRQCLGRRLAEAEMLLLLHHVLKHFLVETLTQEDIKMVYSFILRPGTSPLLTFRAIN

[2] = biological target: T3, Cytochrome P450 11B1, mitochondrial (Homo sapiens, UniProt P15538); experiment: as §1
T3 sequence (P15538 whole entry): T1 sequence (P15538 whole entry)

Compound | IC50 at 25 min (CYP11B1) | IC50 [1] | IC50 [2]
Cc1nnc2n1-c1cc(Cl)c(-c3cncc4ccccc34)cc1CC2 | > 10000 nM | – | –
COc1c(C)cncc1-c1cc2c(cc1F)-n1c(C)nnc1CC2 | > 10000 nM | – | –
COC(C)(C)c1cncc(-c2ccc3c(c2)CCc2nnc(C)n2-3)c1 | – | 5 nM | 108 nM
Cc1nnc2n1-c1c(Cl)cc(-c3cnccc3C(F)(F)F)cc1CC2 | > 30000 nM | – | –
Cc1nnc2n1-c1ccc(-c3cncc4ccccc34)cc1CC2 | – | 5 nM | 407 nM
